The values that follow come from publication PMC9973354 (mBio, 2022).

What all share (format): cell-based, Pseudomonas aeruginosa
Holding throughout (conditions): 10:90 + 2% arabinose

The test system of assay [1] is PA14 ΔfpvA ΔfpvB pHERD20T-fpvA. The assay is described as follows: Checkerboard assay TS and siderophores, FpvA expressed. An excerpt: (§1) We investigated this hypothesis by treating the ΔfpvA ΔfpvB mutant complemented with fpvA or fpvB with TS and pyoverdine-Fe^3+. If pyoverdine competes with TS for the same binding site in the transporter, a reduction in TS susceptibility would be expected, as competition would decrease entry of the antibiotic into the cell. TS susceptibility decreased >8-fold with increasing concentrations of pyoverdine-Fe^3+ when FpvA was expressed (see Fig. S2A in the supplemental material).
(§2) Supplementary file : FIG S2 Checkerboard assays of the PA14 ΔfpvA ΔfpvB strain complemented with fpvA and fpvB in trans with TS and siderophores. […] Checkerboards of the PA14 ΔfpvA ΔfpvB pHERD20T-fpvB strain with TS and enterobactin (G), ferrioxamine E (H), and arthrobactin (I). Results are averaged from three independent biological replicates. Cells in the assay were grown in 10:90 + 2% arabinose. Download FIG S2, EPS file, 2.2 MB.
Checkerboards (8 rows by 8 columns) were conducted as previously described in a 96-well plate (Nunc) ([13], [14]). TS at 75× the final concentration dissolved in DMSO was added in columns from bottom to top in increasing concentrations. Siderophores at 75× the final concentration dissolved in DSMO were added from in rows from left to right in increasing concentrations. Four columns were used for vehicle controls (DMSO) and sterile controls. […] Plates were sealed to prevent evaporation and incubated at 37°C overnight in a shaking incubator (200 rpm). The next day, the OD600 was determined with a plate reader (Thermo Scientific) and normalized to percent of growth of the vehicle control (DMSO) after subtracting the OD600 from blank media.

The subject of assay [2] is PA14 ΔfpvA ΔfpvB pHERD20T-fpvB. The assay can be described thus: Checkerboard assay TS and siderophores, FpvB expressed.
From the text: as §1, §2
Checkerboards (8 rows by 8 columns) were conducted as previously described in a 96-well plate (Nunc) ([13], [14]). TS at 75× the final concentration dissolved in DMSO was added in columns from bottom to top in increasing concentrations. […] The next day, the OD600 was determined with a plate reader (Thermo Scientific) and normalized to percent of growth of the vehicle control (DMSO) after subtracting the OD600 from blank media.

Assay [3] has as its system PA14 ΔfpvA ΔfpvB ΔfiuA ΔfoxA pHERD20T-fpvB D219A. The assay is described as follows: Growth of quadruple mutant expressing FpvB D219A. On the procedure: Site-directed mutagenesis was used to confirm the docking predictions and to define the molecular determinants for ligand uptake through FpvB (Fig. 4C). We generated 17 single amino acid substitutions in FpvB and expressed each of them in trans in the quadruple ΔfpvA ΔfpvB ΔfiuA ΔfoxA mutant. Their ability to complement growth of the mutant in the presence of ferrichrome and ferrioxamine B and to restore TS susceptibility was assessed. […] The mutant transporters were tagged with a C-terminal FLAG tag to evaluate expression levels. FLAG-tagged FpvB mutants had WT levels of expression except for Y216T and W347V, which were expressed at 140% and 25% of WT, respectively.
The ΔfpvA ΔfpvB ΔfiuA ΔfoxA mutant was complemented with WT fpvA, fpvB, fiuA, and foxA in trans as controls (Fig. 4E).
MIC assays were conducted as previously described ([13], [14]). Overnight cultures were grown in LB from a glycerol stock at 37°C with shaking (200 rpm). Subcultures in 10:90 (1:100 dilution) were cultured for 4 h. Cells were adjusted to an optical density at 600 nm (OD600) of 0.1/500 in 10:90. All compounds were serially diluted 2-fold in dimethyl sulfoxide (DMSO) or H2O at 75× the final concentration. […] The next day, the OD600 was determined with a plate reader (Thermo Scientific) and normalized to percent of growth of the vehicle control after subtracting the OD600 from blank media.

On to `CC(=O)N(O)CCCCCNC(=O)CCC(=O)N(O)CCCCCNC(=O)CCC(=O)N(O)CCCCCN` [ferrioxamine B], for which the “effect of siderophore on TS susceptibility” value in assay [1] is reported as “None of those siderophores reduced TS susceptibility”; in assay [2], “antagonized TS susceptibility”. In addition, the “growth in the presence of siderophore” value in assay [3] is “prevented growth”.
